From patent publication US20110288103A1, “COMPOUNDS, COMPOSITIONS, AND METHODS COMPRISING 1,3,4-OXADIAZOLE DERIVATIVES” (Institute for OneWorld Health, priority 2010, published 2011)
“And” between values parts separate entries of the source, which are not always exact repeats. Equal values may be shown once. “Also recorded” adds a separate entry of the source.

Columns and labels:
[1] = system: intestinal loops injected with cholera toxin (CTX); set-up: species or system mice (CD1 strain); conditions: mouse, in vivo
[2] = system: calcium-activated chloride channels (CaCC); test: Whole cell patch clamp recording of CaCC-mediated Cl- currents in JME/CF15 cells; format: cell-based
Experimental: Effect on calcium-activated chloride channels (CaCC) was investigated in JME/CF15 cells (see Jefferson et al. “Expression of normal and cystic fibrosis phenotypes by continuous airway epithelial cell lines” Am J. Physiol. (1990) December; 259 (6 Pt 1): L496-505). […] Test compound was Compound 10 ('915/2 in FIGS. 1 and 2) and positive control for CaCC was flufenamic acid (FFA).
JME/CF15 cells were prepared for whole cell patch clamp recordings following standard protocols (as described in Fischer et al. “Basolateral Cl channels in primary airway epithelial cultures” Am J Physiol Lung Cell Mol Physiol. (2007) 292:L1432-L1443, which is incorporated herein by reference in its entirety) while incubated in a bath solution as follows (mM): 140 HCl, 158 N-methyl-D-glucamine (NMDG), 2 CaCl2, 1 MgCl2, 12.5 Hepes, 10 glucose, pH 7.4. To selectively activate calcium-activated chloride channels (CaCC), the pipette solution consisted of (in mM) HCl, 160 N-methyl-D-glucamine (NMDG), 1 MgCl2, 5 Hepes, 1 glucose, 5 MgATP, pH 7.4.
(§1) Conventional whole cell patch clamp recordings were made. Effects of compounds were tested in 2 runs at 1 and 10 μM, respectively, on CaCC. To activate CaCC mediated Cl^− conductances, the pipette solution contained 500 nM CaCl2 without EGTA (in order to allow for agonist induced regulation of CaCC) or a mixture of 1.8 mM CaCl2 and 2 mM EGTA resulting in a free concentration of calcium of 500 nM to maintain a stable intracellular calcium concentration.
(§2) CaCC-mediated Cl^− currents were measured with a pipette solution that contained ˜500 nM free Ca to activate CaCC. […] This is likely a Ca-activated K^+ conductance because i) it generates a large outward current (which rules out a Cl^− conductance), and ii) it is transient (likely because intracellular K^+ is exhausted).

[3] = system: Ca-activated K+ conductance; test: Whole cell patch clamp in JME/CF15 cells: additional (K+) conductance; format: cell-based
Experimental: as §1, §2
The experimental conditions were not set up to measure a K^+ conductance, i.e., there is no K^+ in the employed solutions, and the measured currents are dependent on the residual K^+ found in cells. […] In an epithelial setting, concurrent block of CaCC and a K^+ conductance may result in weaker blocker efficiency or even in stimulation of secretion.

Structure (SMILES) | % Inhibition [1] [%^ψ] | Inhibition of CTX-induced fluid secretion (statistical significance) [1] | Block of CaCC-mediated Cl- currents ([2]; intracellular calcium stably buffered (with EGTA), ~500 nM free Ca, compound added to bath, runs at 1 and 10 μM, FIG. 1) | Block of CaCC-mediated (remaining) chloride current ([2]; intracellular calcium unbuffered (low EGTA), ~500 nM free Ca, 10 μM, FIG. 2) | Activation of a K+ conductance ([3]; Ca-buffered solutions) | Activation of an additional conductance (likely Ca-activated K+ conductance) ([3]; intracellular calcium unbuffered (low EGTA), 10 μM, FIG. 2) | Mean net fluid secretion (loop weight/loop length) [1] | Block of remaining chloride current after compound 10 ([2]; intracellular calcium unbuffered, 100 μM FFA added after compound 10, FIG. 2)
O=C(NCc1ccc(Oc2ccccc2)cc1)c1nc(-c2cc(Br)c(O)c(Br)c2)no1 [BF000710032, 3-(3,5-dibromo-4-hydroxyphenyl)-N-(4-phenoxybenzyl)-1,2,4-oxadiazole-5-carboxamide, reference compound] | 62.69 | statistically significant inhibition | – | – | – | – | – | –
CN(Cc1ccc(Cl)c(Cl)c1)C(=O)c1nnc(-c2cccc(NS(=O)(=O)C(F)(F)F)c2)o1 [Compound 10, N-(3,4-dichlorobenzyl)-N-methyl-5-(3-(trifluoromethylsulfonamido)phenyl)-1,3,4-oxadiazole-2-carboxamide] | – | statistically significant inhibition | blocking; also recorded: blocked currents | blocking; also recorded: eventually well blocked | not in Ca-buffered | transiently activated an additional conductance; also recorded: activation of a Ca-activated K^+ conductance | 0.04996 g/cm and 0.04015 g/cm and 0.07645 g/cm | –
O=C(O)c1ccccc1Nc1cccc(C(F)(F)F)c1 [FFA, flufenamic acid, reference compound] | – | – | – | – | – | – | – | blocks only slightly more
